Source: patent US6706740B2, “Fungicidal heterocyclic aromatic amides and their compositions, methods of use and preparation” (Dow AgroSciences LLC, priority 1999, dated 2004)

Legend:
Erysiphe graminis—ERYSGT = experiment: Powdery Mildew of Wheat, in vivo whole plant, 24 Hour Protectant; conditions: 100 ppm spray, wheat, 24 hour protectant, % control of fungal infection vs untreated plants; for pest or weed control at 100 ppm: Erysiphe, read-out: ERYSGT in vivo 1 Day Protectant
Septoria tritici—SEPTTR = experiment: Leaf Blotch of Wheat, in vivo whole plant, 24 Hour Protectant; conditions: 100 ppm spray, wheat, 24 hour protectant, % control of fungal infection vs untreated plants; for pest or weed control at 100 ppm: Zymoseptoria tritici, 24 h, read-out: SEPTTR in vivo 1 Day Protectant
[1] = system: Phytophthora infestans (PHYTIN); experiment: microbe, parasite or virus in culture; type: cell-based; conditions: Phytophthora infestans, read-out: PHYTIN in vitro Growth Inhibition
Ustilago maydis (USTIMA) = experiment: microbe, parasite or virus in culture; type: cell-based; conditions: Mycosarcoma maydis, read-out: USTIMA in vitro Growth Inhibition
[2] = system: Leptosphaeria nodorum—LEPTNO; experiment: Glume Blotch of Wheat, in vivo whole plant, 24 Hour Protectant; conditions: 100 ppm spray, wheat, 24 hour protectant, % control of fungal infection vs untreated plants; for pest or weed control at 100 ppm: Leptosphaeria, read-out: LEPTNO in vivo 1 Day Protectant
[3] = system: Puccinia recondita—PUCCRT; experiment: Brown Rust of Wheat, in vivo whole plant, 24 Hour Protectant; conditions: 100 ppm spray, wheat, 24 hour protectant, % control of fungal infection vs untreated plants; for pest or weed control at 100 ppm: Puccinia, read-out: PUCCRT in vivo 1 Day Protectant
[4] = system: Rhizoctonia solani (RHIZSO); experiment: microbe, parasite or virus in culture; type: cell-based; conditions: Rhizoctonia solani, read-out: RHIZSO in vitro Growth Inhibition
[5] = system: Phytophthora infestans—PHYTIN; experiment: whole plant or invertebrate; type: in vivo; conditions: Phytophthora, in Solanum lycopersicum, 24 h, read-out: PHYTIN in vivo 1 Day Protectant
[6] = system: Magnaporthe grisea (Pyricularia oryzae—PYRIOR); experiment: microbe, parasite or virus in culture; type: cell-based; conditions: Pyricularia oryzae, read-out: PYRIOR in vitro Growth Inhibition
[7] = system: Mycosphaerella graminicola (Septoria tritici—SEPTTR); experiment: In vitro fungal growth inhibition, Mycosphaerella graminicola (SEPTTR); type: cell-based; conditions: Zymoseptoria tritici; 25 ppm in growth medium; read-out: SEPTTR in vitro Growth Inhibition
[8] = system: Stagonospora nodorum (Leptosphaeria nodorum—LEPTNO); experiment: In vitro fungal growth inhibition, Stagonospora nodorum (LEPTNO); type: cell-based; conditions: Leptosphaeria; 25 ppm in growth medium; read-out: LEPTNO in vitro Growth Inhibition

Compound	pest or weed control at 100 ppm (Erysiphe graminis—ERYSGT)	SEPTTR in vivo 1 Day Protectant (Septoria tritici—SEPTTR)	inhibition at 25 ppm [1]	inhibition at 25 ppm (Ustilago maydis (USTIMA))	LEPTNO in vivo 1 Day Protectant [2]	PUCCRT in vivo 1 Day Protectant [3]	inhibition at 25 ppm [4]	pest or weed control at 100 ppm [5]	inhibition at 25 ppm [6]	inhibition at 25 ppm [7]	melting point	inhibition at 25 ppm [8]	ERYSGT in vivo 1 Day Protectant (Erysiphe graminis—ERYSGT)	pest or weed control at 100 ppm (Septoria tritici—SEPTTR)	pest or weed control at 100 ppm [2]	pest or weed control at 100 ppm [3]
CCCC(=O)Oc1c(OC)ccnc1C(=O)N[C@H]1COC(=O)[C@H](Cc2ccccc2)[C@@H](OC(=O)C(C)C)[C@H](C)OC1=O [Compound 599]	< 25%	+ +	< 80%	< 80%	+ +	+ +	< 80%	< 25%	< 80%	> 80%	162 to 163 °C	> 80%	–	–	–	–
COc1ccnc(C(=O)N[C@H]2COC(=O)[C@H](Cc3ccccc3)[C@@H](OC(=O)C(C)C)[C@H](C)OC2=O)c1OC(=O)C1CC1 [Compound 601]	< 25%	+ +	< 80%	< 80%	+ +	+ +	< 80%	< 25%	< 80%	< 80%	195 to 196 °C	< 80%	–	–	–	–
COc1ccnc(C(=O)N[C@H]2COC(=O)[C@H](Cc3ccccc3)[C@@H](OC(=O)C(C)C)[C@H](C)OC2=O)c1OC(=O)C1CCC1 [Compound 604]	–	+ +	< 80%	< 80%	+ +	+ +	< 80%	< 25%	< 80%	< 80%	176 to 177 °C	< 80%	+ +	–	–	–
COc1ccnc(C(=O)N[C@H]2COC(=O)[C@H](Cc3ccccc3)[C@@H](OC(=O)C(C)C)[C@H](C)OC2=O)c1OC(=O)CC(C)(C)C [Compound 610]	< 25%	–	< 80%	< 80%	–	–	< 80%	< 25%	< 80%	< 80%	151 to 152 °C	> 80%	–	< 25%	< 25%	25 to 74%
COCCC(=O)Oc1c(OC)ccnc1C(=O)N[C@H]1COC(=O)[C@H](Cc2ccccc2)[C@@H](OC(=O)C(C)C)[C@H](C)OC1=O [Compound 658]	< 25%	+ +	< 80%	< 80%	+ +	+ +	< 80%	< 25%	> 80%	< 80%	126 to 128 °C	< 80%	–	–	–	–
COCCC(=O)Oc1c(OC)ccnc1C(=O)N[C@H]1COC(=O)[C@H](Cc2ccccc2)[C@@H](OC(=O)C(C)(C)C)[C@H](C)OC1=O [Compound 703]	–	+ +	< 80%	< 80%	+ +	+ +	< 80%	< 25%	< 80%	< 80%	144 to 145 °C	> 80%	+ +	–	–	–
COCCC(=O)Oc1c(OC)ccnc1C(=O)Nc1ccc(C(=O)c2cccc(C(F)(F)F)c2)cc1 [Compound 706]	< 25%	–	< 80%	< 80%	–	–	< 80%	< 25%	< 80%	< 80%	158 to 160 °C	> 80%	–	25 to 74%	25 to 74%	< 25%
COc1ccnc(C(=O)Nc2ccc(Sc3cccc(C(F)(F)F)c3)cc2)c1OC(C)=O [Compound 711]	< 25%	+ +	< 80%	< 80%	–	–	< 80%	< 25%	> 80%	> 80%	134 to 136 °C	> 80%	–	–	25 to 74%	< 25%
COCCC(=O)Oc1c(OC)ccnc1C(=O)Nc1ccc(C(=O)Nc2cccc(C(F)(F)F)c2)cc1 [Compound 713]	< 25%	–	< 80%	< 80%	–	–	< 80%	< 25%	< 80%	< 80%	164 to 167 °C	< 80%	–	< 25%	25 to 74%	< 25%
COCCC(=O)Oc1c(OC)ccnc1C(=O)Nc1cccc(C(=O)Nc2ccc(C(F)(F)F)cc2)c1 [Compound 714]	< 25%	–	< 80%	< 80%	–	–	< 80%	< 25%	< 80%	< 80%	187 to 189 °C	< 80%	–	25 to 74%	25 to 74%	< 25%
COc1ccnc(C(=O)Nc2ccc(C(=O)Oc3cccc(C(F)(F)F)c3)cc2)c1OC(C)=O [Compound 715]	< 25%	–	< 80%	< 80%	–	–	< 80%	< 25%	< 80%	< 80%	166 to 169 °C	< 80%	–	< 25%	25 to 74%	25 to 74%
COc1ccnc(C(=O)Nc2ccc(C(=O)Oc3ccc(C(F)(F)F)cc3)cc2)c1OC(C)=O [Compound 717]	< 25%	–	< 80%	< 80%	–	–	< 80%	< 25%	< 80%	< 80%	203 to 205 °C	< 80%	–	25 to 74%	25 to 74%	< 25%
COCCC(=O)Oc1c(OC)ccnc1C(=O)Nc1cccc(NC(=O)c2ccc(C(F)(F)F)cc2)c1 [Compound 718]	< 25%	+ +	< 80%	< 80%	–	–	< 80%	< 25%	< 80%	< 80%	115 to 118 °C	< 80%	–	–	25 to 74%	25 to 74%
COc1ccnc(C(=O)Nc2ccc(NC(=O)c3cccc(C(F)(F)F)c3)cc2)c1OC(C)=O [Compound 719]	< 25%	–	< 80%	< 80%	–	–	< 80%	< 25%	< 80%	< 80%	124 to 126 °C	< 80%	–	< 25%	25 to 74%	< 25%
